The values below come from US10940329B2, “Phosphor-containing drug activator activatable by a Monte Carlo derived x-ray exposure, system containing the activator, and methods for use” (IMMUNOLIGHT, LLC, priority 2016, dated 2021).

The test system of assay [1] is 4T1-HER2 cells. Description: Methylene blue staining for cell viability. The class given is cell-based, murine. The conditions noted are these: FIGS. 13C, 13D; individual components; 1 Gy of 80 kVp x-rays; UVADEX 10 uM 8-MOP equivalent, phosphor 25, 50, 100 μg/mL. The source says:
Methylene blue staining of viable 4T1-HER2 cells confirms that the device works well according to the target parameters identified above. A plate having six (6) wells is subjected to treatment. […] One well (#1) is the control. One well (#2) has phosphor coated with EC and DLC (H100). One well (#3) has phosphor coated with EC (but no DLC). One well (#4) has drug UVADEX but no phosphors. One well (#5) has drug UVADEX and phosphors coated with EC and DLC. One well (#6) has drug UVADEX and phosphors coated with EC and no DLC.
All wells were exposed to the x-ray conditions noted above. […] One added benefit to a dual coating is redundancy in safety of the treatment.
(§1) Other assays were used to provide independent complimentary information on cell viability, e.g. Methylene blue staining and ATP-induced Luminescence imaging (Cell-Titer-Glo® Luminescence Cell Viability Assay). The luminescence imaging permitted investigation of the cytotoxicity of psoralen activated directly with a UV lamp, and in the absence of phosphors and x-ray radiation.
FIGS. 13A-13D illustrates the efficacy of treatment in-vitro in 4T1-HER2 cells, utilizing a regimen of 1/10-diluted UVADEX (with equivalent of 10 uM 8-MOP), 50 μg/mL phosphor 1 Gy of 80 kVp x-rays. FIG. 13A presents the cell viability data for three treatment conditions: UVADEX alone, phosphors alone, and the combination of UVADEX and phosphors. […]

For assay [2], the system named is 4T1-HER2 cells. Description: cell viability by Guava flow cytometry (forward scattering). In kind it is cell-based, murine. The conditions noted are these: FIG. 13A; UVADEX alone, 10 μM 8-MOP equivalent; 1 Gy of 80 kVp; p=0.97. How it is done:
(§2) As part of the baseline study, in-vitro studies were conducted on plated cells following standard procedures. Cells were maintained in RPMI-1640 supplemented with 10% fetal bovine serum and L-glutamine from GIBCO (Grand Island, N.Y.) growing in a humidified atmosphere of 5% CO2. After incubation, cells were trypsinized and plated evenly onto twelve 12-well plates for 24 hours. About 20 minutes prior to irradiation, the 12 wells of each plate were exposed to the following combinations of additives: (1) control—cells only with no additives, (2) UVADEX only, (3) phosphors only, (4) UVADEX+ phosphors. Each plate had 12 wells with three wells for each of the four treatment arms. […]
(§3) Two primary flow cytometry analyses were used, both determined at 48 hours after treatment. […] The first analysis evaluated was metabolic cell viability (herein referred to as cell viability) calculated from the number of whole cells per well as determined using forward scattering (FSC). […]
(§4) FIGS. 13A-13D illustrates the efficacy of treatment in-vitro in 4T1-HER2 cells, utilizing a regimen of 1/10-diluted UVADEX (with equivalent of 10 uM 8-MOP), 50 μg/mL phosphor 1 Gy of 80 kVp x-rays. […] In FIG. 13A, cell viability after treatment (10 μM 8-MOP equivalent dilution of UVADEX, 50 μg/mL phosphor, 1 Gy of 80 kVp radiation) as determined by Guava flow cytome cytometry is depicted. […]
(A flow cytometer gives signals particle by particle.)

In assay [3] the test system is 4T1-HER2 cells. Nature of the assay: Annexin V positivity by flow cytometry. The conditions noted are these: FIG. 13B; either with or without x-ray (p values of 0.90 and 0.09). In kind it is cell-based, murine. How it is done: as §2, §3, §4
Assay [4] relates to CT2A (murine malignant glioma). Nature of the assay: Cell-Titer-Glo Luminescence Cell Viability Assay, UV activated psoralen. In kind it is cell-based. The note with it: FIG. 14A; psoralen 40 μM; UV light 0, 0.25, 0.5, 1.0 J/cm^2; N=4.
Source text: as §1
(§5) FIG. 14B presents data on CT2A malignant glioma cells, for a range of treatment parameters including variable x-ray dose (0, 0.67 and 1 Gy), phosphor concentration (50 or 100 μg) and psoralen concentration (8-MOP) at 10, 20 and 40 μM respectively. […] N=4 for each cell line at each UV light condition (0, 0.25, 0.5, 1.0 J/cm^2). The psoralen concentration was 40 μM. For FIG. 14B, in CT2A cells, the treatment cytotoxicity increases with X-ray dose (0, 0.67 and 1.00 Gy respectively), concentration of 8-MOP psoralen (10, 20 and 40 μM respectively), and phosphor (50 and 100 μg/ml) respectively (p values shown thereon).

Another assay concerns 4T1. The description is as above. In kind it is cell-based, murine. The note with it: FIG. 14A; psoralen 40 μM; UV light 0, 0.25, 0.5, 1.0 J/cm^2; N=4.
Source text: as §1, §5

Assay [5] relates to KP-B (sarcoma) cell lines. The description is as above. The note with it: FIG. 14A; psoralen 40 μM; UV light 0, 0.25, 0.5, 1.0 J/cm^2; N=4. In kind it is cell-based, mice.
Source text: The mouse breast cancer cell line 4T1 was purchased from ATCC. 4T1-HER2 was provided by Dr. Michael Kershaw (Cancer Immunology Program, Peter MacCallum Cancer Centre, Victoria, Australia) and maintained in DMEM with penicillin/streptomycin and 10% FBS The Sarcoma KP-B cell lines were derived from primary tumors LSL-Kras; p53 Flox/Flox mice (45).
as §1, §5

For `COc1c2occc2cc2ccc(=O)oc12` [UVADEX, 8-methoxypsoralen], the “cell viability by methyl blue staining” value in the assay on 4T1-HER2 cells [1] is “little effect”. The “effect of addition of radiation on cell viability” value with 4T1-HER2 cells [2] is “no significant effect on cell viability”. Besides, the “apoptotic activity (Annexin V)” value with 4T1-HER2 cells [3] was “negligible apoptotic activity”.
Consider `O=c1ccc2cc3ccoc3cc2o1` [psoralen], for which the viable cells entry (in assay [4]; in the assay on 4T1; in assay [5]) was “reduce viable cells” throughout.
